Some test systems named below: LOX IMVI melanoma; SF-268 CNS; MALME-3M melanoma; OVCAR-5 ovarian; ACHN renal; SK-MEL-28 melanoma; OVCAR-3 ovarian; UACC-257 melanoma; UO-31 renal; U251 CNS.
Experiment in all cases: growth of human tumour cells (NCI), 48 h

Several values for one entry are separate records, joined by “and”; a condition that tells them apart may be missing. Identical values can stand only once.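 Results reflect a 48-hour exposure of cells in 96-well plates to compound at five concentrations. The concentration for full growth arrest is given as TGI.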

Take `COC(=O)c1ccc2c(O)c(O)ccc2c1`: the TGI with LOX IMVI melanoma amounted to 11.5 µM; in the test on SF-268 CNS it was 33.9 µM; in the test with MALME-3M melanoma, 24.2 µM; with OVCAR-5 ovarian, 36.5 µM; in the test on ACHN renal, 30.9 µM; in the test with SK-MEL-28 melanoma, 31.4 µM. The TGI in the test with OVCAR-3 ovarian was 17 µM; in the test on UACC-257 melanoma, 28.1 µM; in the test on UO-31 renal it was 36.4 µM; with U251 CNS, 27.5 µM.
For the molecule `CN(C)c1ccc(C=C2C(=O)OC(C)(C)OC2=O)cc1Br`, the TGI in the test with LOX IMVI melanoma, with SF-268 CNS, in the test on MALME-3M melanoma, in the test with OVCAR-5 ovarian, with ACHN renal and in the test on SK-MEL-28 melanoma was over 100 µM throughout. Besides, the TGI in the test on OVCAR-3 ovarian, in the test with UACC-257 melanoma, in the test on UO-31 renal and in the test on U251 CNS was over 100 µM each time.
For the molecule `CC1=C2C(=O)c3ccccc3C(=O)[C@H]2[C@H]2CCO[C@H]2O1`, the TGI in the test with LOX IMVI melanoma came out at 58.4 µM; in the test with SF-268 CNS it was 35.1 µM; with MALME-3M melanoma it was 35.9 µM; with OVCAR-5 ovarian it was 49.2 µM; with ACHN renal, 45.5 µM; in the test on SK-MEL-28 melanoma, 63.1 µM. Further, the TGI with OVCAR-3 ovarian was 36.5 µM; in the test on UACC-257 melanoma, 36.5 µM; in the test with UO-31 renal, 35.7 µM; with U251 CNS it was 59.3 µM.
Consider `Cc1cc(=O)[nH]c(NN2C(Cl)C(=O)C2c2ccc(Cl)cc2)n1` (stereo not given), for which the TGI was 15.1 µM with LOX IMVI melanoma; over 66.2 µM in the test on SF-268 CNS; 32.3 µM with MALME-3M melanoma; over 60.4 µM with OVCAR-5 ovarian; over 56.4 µM in the test on ACHN renal; 49.6 µM in the test with SK-MEL-28 melanoma. Besides, the TGI was 30.3 µM with OVCAR-3 ovarian, over 55.1 µM in the test with UACC-257 melanoma, over 60.9 µM in the test on UO-31 renal and 52.4 µM in the test on U251 CNS.
On to `O=C(NCc1cccnc1)NCc1cccnc1`, for which the TGI in the test with LOX IMVI melanoma, in the test on SF-268 CNS, with MALME-3M melanoma, in the test on OVCAR-5 ovarian, in the test with ACHN renal and in the test on SK-MEL-28 melanoma was over 100 µM throughout. Moreover, the TGI in the test with OVCAR-3 ovarian, in the test on UACC-257 melanoma, in the test with UO-31 renal and in the test with U251 CNS was over 100 µM each time.
As for `O=c1cc(-c2cccc(Cl)c2)[nH]c2ncccc12`, the TGI was over 100 µM with LOX IMVI melanoma; over 88.8 µM with SF-268 CNS; over 100 µM in the test on MALME-3M melanoma; over 100 µM with OVCAR-5 ovarian; over 100 µM with ACHN renal; over 100 µM in the test on SK-MEL-28 melanoma. For the same molecule, the TGI was 0.957 µM in the test with OVCAR-3 ovarian, over 100 µM in the test on UACC-257 melanoma, over 54 µM in the test with UO-31 renal and 29.3 µM in the test on U251 CNS.
For `COc1ccc(NC2Oc3cc4c(cc3C(c3cccc(OC)c3OC)C2C)OCO4)cc1` (stereo not given), the TGI was over 100 µM in the test on LOX IMVI melanoma; over 100 µM in the test with SF-268 CNS; 82.3 µM with MALME-3M melanoma; over 100 µM with OVCAR-5 ovarian; over 100 µM in the test with ACHN renal; 85.7 µM in the test with SK-MEL-28 melanoma. The TGI is over 100 µM in the test with OVCAR-3 ovarian, 69.2 µM in the test on UACC-257 melanoma, over 100 µM in the test on UO-31 renal and over 100 µM in the test on U251 CNS.
As to `COC(=O)C1C(OC(=O)c2ccccc2)CC2CCC1N2C(N)=O` (stereo not given), the TGI with LOX IMVI melanoma, in the test with SF-268 CNS, in the test on MALME-3M melanoma, in the test on OVCAR-5 ovarian, in the test with ACHN renal and in the test with SK-MEL-28 melanoma was over 100 µM throughout. The TGI with OVCAR-3 ovarian, with UACC-257 melanoma, in the test with UO-31 renal and in the test with U251 CNS was over 100 µM throughout.
Turning to `C#CCOCC12C=CC(O1)C1C(=O)N(C)C(=O)C12` (stereo not given), the TGI in the test on LOX IMVI melanoma, with SF-268 CNS, in the test on MALME-3M melanoma, in the test on OVCAR-5 ovarian, in the test on ACHN renal and in the test with SK-MEL-28 melanoma was over 100 µM throughout. The TGI with OVCAR-3 ovarian was over 100 µM; with UACC-257 melanoma, 21 µM and > 100 µM; in the test on UO-31 renal, over 100 µM; in the test with U251 CNS, over 100 µM.
Consider `Cn1c(/C=C(\O)c2ccc(Cl)cc2)nc2ccccc21`, for which the TGI is over 100 µM with LOX IMVI melanoma; over 100 µM in the test with SF-268 CNS; over 100 µM with MALME-3M melanoma; 67.7 µM in the test on OVCAR-5 ovarian; over 100 µM with ACHN renal; over 100 µM in the test on SK-MEL-28 melanoma. Further, the TGI in the test on OVCAR-3 ovarian is over 100 µM; in the test with UACC-257 melanoma it was 67.1 µM; in the test on UO-31 renal, 66.1 µM; in the test with U251 CNS it was over 100 µM.
Consider `COc1nc(N)c(NC2OC(CO)C(O)C2O)c(=O)[nH]1` (stereo not given), for which the TGI in the test with LOX IMVI melanoma, with SF-268 CNS, in the test on MALME-3M melanoma, in the test on OVCAR-5 ovarian, in the test on ACHN renal and with SK-MEL-28 melanoma was over 100 µM throughout. The TGI in the test with OVCAR-3 ovarian, in the test with UACC-257 melanoma, in the test with UO-31 renal and in the test with U251 CNS was over 100 µM in each case.
As for `CCOC(=O)/C(C(=S)Nc1ccccc1)=C(/N)N1CCCC1`, the TGI in the test with LOX IMVI melanoma, in the test with SF-268 CNS, in the test with MALME-3M melanoma, with OVCAR-5 ovarian, in the test on ACHN renal and with SK-MEL-28 melanoma was over 100 µM each time. In addition, the TGI with OVCAR-3 ovarian, in the test with UACC-257 melanoma, in the test on UO-31 renal and in the test on U251 CNS was over 100 µM throughout.
As for `O=C(NNC1=NCCN1)c1ccco1`, the TGI in the test on LOX IMVI melanoma, in the test with SF-268 CNS, with MALME-3M melanoma, in the test on OVCAR-5 ovarian, in the test with ACHN renal and with SK-MEL-28 melanoma was over 100 µM each time. Moreover, the TGI with OVCAR-3 ovarian, in the test on UACC-257 melanoma, in the test on UO-31 renal and in the test with U251 CNS was over 100 µM in each case.
Take `Fc1ccc2nc3n(c2c1)C(c1c(F)cccc1F)SC3` (stereo not given): the TGI in the test on LOX IMVI melanoma, in the test on SF-268 CNS, in the test with MALME-3M melanoma, with OVCAR-5 ovarian, in the test with ACHN renal and in the test with SK-MEL-28 melanoma was over 100 µM throughout. Further, the TGI in the test on OVCAR-3 ovarian, in the test with UACC-257 melanoma, with UO-31 renal and in the test on U251 CNS was over 100 µM each time.
For the molecule `N#CC(C#N)=Cc1ccc2c(c1)OC(Cl)O2` (stereo not given), the TGI in the test on LOX IMVI melanoma was found to be 38.2 µM; with SF-268 CNS it was 66.4 µM; with MALME-3M melanoma, 34.8 µM; in the test with OVCAR-5 ovarian, 37.1 µM; in the test on ACHN renal, 36 µM; in the test on SK-MEL-28 melanoma it was 36.9 µM. In addition, the TGI stood at 52.8 µM in the test on OVCAR-3 ovarian, 41 µM with UACC-257 melanoma, 30.7 µM in the test with UO-31 renal and 41.4 µM with U251 CNS.
As to `O=C(NCCCCCCCCNC(=O)c1cc(-c2ccccc2)nc2ccccc12)c1cc(-c2ccccc2)nc2ccccc12`, the TGI in the test on LOX IMVI melanoma, in the test with SF-268 CNS, in the test on MALME-3M melanoma, in the test with OVCAR-5 ovarian, in the test on ACHN renal and with SK-MEL-28 melanoma was over 100 µM in each case. Further, the TGI in the test on OVCAR-3 ovarian, with UACC-257 melanoma, in the test with UO-31 renal and in the test on U251 CNS was over 100 µM in each case.
Consider `COc1c2c(cc3oc(C)cc(=O)c13)OC(=N)C(C(N)=O)C2CC(=O)c1ccc(N)cc1` (stereo not given), for which the TGI in the test on LOX IMVI melanoma, in the test with SF-268 CNS, in the test on MALME-3M melanoma, in the test with OVCAR-5 ovarian, in the test with ACHN renal and in the test with SK-MEL-28 melanoma was over 100 µM throughout. Further, the TGI with OVCAR-3 ovarian, in the test with UACC-257 melanoma, in the test on UO-31 renal and in the test with U251 CNS was over 100 µM in each case.
With `CCOC(=O)c1sc2c(c1OC(=O)c1cccs1)c(=O)n(-c1ccccc1)c(=S)n2-c1ccccc1`, the TGI with LOX IMVI melanoma was 36.3 µM; in the test on SF-268 CNS it was over 100 µM; with MALME-3M melanoma, 31.5 µM; with OVCAR-5 ovarian, 50.7 µM; in the test on ACHN renal it was 37.6 µM; in the test on SK-MEL-28 melanoma, 35.4 µM. Further, the TGI is 60.6 µM in the test on OVCAR-3 ovarian, over 100 µM in the test on UACC-257 melanoma, 0.925 µM in the test on UO-31 renal and 31.4 µM in the test on U251 CNS.
For `CN(C(=O)Cc1cc(Cl)c(Cl)cc1N=C=S)[C@H]1CCCC[C@@H]1N1CCCC1`, the TGI with LOX IMVI melanoma worked out at 13.3 µM; with SF-268 CNS, 31.4 µM; in the test on MALME-3M melanoma, 31.8 µM; in the test on OVCAR-5 ovarian it was 31.7 µM; in the test on ACHN renal it was 28.7 µM; in the test on SK-MEL-28 melanoma it was 7.65 µM. For the same molecule, the TGI in the test on OVCAR-3 ovarian amounted to 29.6 µM; with UACC-257 melanoma it was 28 µM; in the test on UO-31 renal it was 29.1 µM; in the test with U251 CNS it was 28.2 µM.

The values above are taken from PubChem BioAssay (NCI).
